In article PMC7312375, “A Novel, Pan-PDE Inhibitor Exerts Anti-Fibrotic Effects in Human Lung Fibroblasts via Inhibition of TGF-β Signaling and Activation of cAMP/PKA Signaling” (International Journal of Molecular Sciences, 2020):

Key:
[1] = tested on: TGF-β1-induced MRC-5 cells; assay: Immunofluorescence count of α-SMA positive myofibroblasts; format: cell-based, human; details: 10 µM, 48 h TGF-β1 5 ng/mL
Method: For immunocytochemical labeling, MRC-5 cells were seeded on glass coverslips. Study compounds (10 µM) were added 1 h before TGF-β1 treatment, and analysis was performed after 1 h (p-Smad-2 and p-CREB detection) or 48 h (α-SMA detection) of incubation. Cells were fixed in methanol or 4% formaldehyde solution, permeabilized in 0.2% or 0.1% Triton X-100 solution (for p-Smad-2 and p-CREB or α-SMA, respectively). After incubation in blocking solution the following primary antibodies: rabbit polyclonal, anti-phospho-Smad-2 (Ser465, Ser467) antibody (#44-244G, Thermo Fisher Scientific, Waltham, MA, USA); rabbit polyclonal, anti-phospho-CREB1 (Ser133) antibody (#orb213775, Biorbyt, Cambridge, United Kingdom); mouse monoclonal, anti-α-SMA antibody (#MA5-11547, Thermo Fisher Scientific, Waltham, MA, USA) and secondary antibodies: goat anti-rabbit Alexa Fluor 546 conjugated antibody and goat anti-mouse Alexa Fluor 488 conjugated antibody (#A-11010 and #A-11001, respectively, Invitrogen, Carlsbad, CA, USA) were used. Nuclei were counterstained with Hoechst 33342 dye (Thermo Fisher Scientific, Waltham, MA, USA). Slides were mounted in ProLong™ Glass Antifade Mountant (Invitrogen, Carlsbad, CA, USA) and analyzed using Leica DMiL LED Fluo microscope (for α-SMA and p-CREB visualization, 40× objective) or Leica DMi8 with Thunder Imaging System (for p-Smad-2 visualization, 40× objective), all equipped with LAS-X Software (Leica Microsystems GmbH, Wetzlar, Germany). Experiments were run four times using five randomly selected fields of view, at the same fluorescent time exposure and in a blind-folded manner.

MRC-5 cells = assay: Intracellular calcium measurements (Fluo-4); format: cell-based, human
Method: MRC-5 cells were briefly washed with NaHEPES buffer (NaHEPES buffer was prepared as follows: NaCl 140 mM, KCl 4.7 mM, HEPES 10 mM, MgCl2 1 mM, glucose 10 mM; pH 7.3) and then loaded with 1 µM Fluo-4 AM (Thermo Fisher Scientific, Waltham, MA, USA) for 1 h, 37 °C in NaHEPES. After the incubation, the cells were washed again with fresh NaHEPES and used for experiments in a flow chamber perfused with NaHEPES-based extracellular solution supplemented with 1 mM CaCl2. All experiments were carried out at room temperature using Zeiss LSM 880 confocal microscope (40× oil objective), excitation was set to 488 nm, and the emission was between 500 and 600 nm. Each series of images was recorded at 256 × 256-pixel resolution, two consecutive frames were averaged, and the interval between the averaged images was set at 2 s. Fluorescence signals were plotted as F/F0, where F0 was baseline fluorescence defined as the averaged signal from ten consecutive baseline images.

[2] = tested on: TGF-β1-induced MRC-5 cells; assay: Western blot of p-Smad-2; format: cell-based, human; details: 10 µM, 1 h pre-incubation, TGF-β1 5 ng/mL 1 h
Method: Western Blot analysis was performed according to a standard protocol. Briefly, MRC-5 cells were pre-incubated with the study compounds (10 µM) for 1 h, […] (RIPA Lysis and Extraction Buffer, Thermo Fisher Scientific, Waltham, MA, USA) and supplemented with protease inhibitor cocktail and phosphatase inhibitor cocktail (both from Sigma Aldrich, St. Louis, MO, USA). Equal amounts of protein (30 µg) were separated using 10% SDS-polyacrylamide gels and transferred onto polyvinylidene difluoride (PVDF) membranes (Thermo Fisher Scientific, Waltham, MA, USA). Then membranes were washed with Tris Buffered Saline with Tween 20 (TBST) buffer (150 mM NaCl, 50 mM Tris, 0.05% Tween 20), blocked with 5% skim milk in TBST and incubated overnight with the appropriate primary antibody: rabbit, polyclonal anti-SMAD2 antibody, dilution 1:250, #51-1300 and rabbit, polyclonal anti-phospho-SMAD2 (Ser465, Ser467) antibody, dilution 1:500, #44-244G (both from Thermo Fisher Scientific, Waltham, MA, USA); rabbit, polyclonal anti-CREB1 antibody, dilution 1:500, #orb213777 and rabbit, polyclonal anti-phospho-CREB1 (Ser133) antibody, dilution 1:500, #orb213775 (both from Biorbyt LLC, San Francisco, CA, USA); mouse monoclonal anti-GAPDH antibody, dilution 1:5000, #G8795 (Sigma Aldrich, St. Louis, MO, USA). The next day, after gentle rising, membranes were exposed to secondary, rabbit anti-mouse IgG (whole molecule) peroxidase antibody (#A9044, dilution 1:3000, Sigma Aldrich, St. Louis, MO, USA) and goat anti-rabbit IgG (H+L) peroxidase-conjugated antibody (#32460, dilution 1:3000, Thermo Fisher Scientific, Waltham, MA, USA). Blots were visualized using a chemiluminescence method (Clarity Max™ Western ECL Substrate—Peroxide Solution, BioRad, Hercules, CA, USA) with a C-DiGit® Blot Scanner (LI-COR Biosciences, Lincoln, NE, USA). ROD was measured according to the NIH guidelines with Fiji ImageJ Software. The experiments were run four times.

PDE4A = target: T1, PDE4A (Homo sapiens, UniProt P27815); assay: PDE-Glo assay, human recombinant PDE4A; format: biochemical; details: read-out: PDE-IC50 4A
T1 construct: purchased SignalChem
T1 sequence (P27815 whole entry): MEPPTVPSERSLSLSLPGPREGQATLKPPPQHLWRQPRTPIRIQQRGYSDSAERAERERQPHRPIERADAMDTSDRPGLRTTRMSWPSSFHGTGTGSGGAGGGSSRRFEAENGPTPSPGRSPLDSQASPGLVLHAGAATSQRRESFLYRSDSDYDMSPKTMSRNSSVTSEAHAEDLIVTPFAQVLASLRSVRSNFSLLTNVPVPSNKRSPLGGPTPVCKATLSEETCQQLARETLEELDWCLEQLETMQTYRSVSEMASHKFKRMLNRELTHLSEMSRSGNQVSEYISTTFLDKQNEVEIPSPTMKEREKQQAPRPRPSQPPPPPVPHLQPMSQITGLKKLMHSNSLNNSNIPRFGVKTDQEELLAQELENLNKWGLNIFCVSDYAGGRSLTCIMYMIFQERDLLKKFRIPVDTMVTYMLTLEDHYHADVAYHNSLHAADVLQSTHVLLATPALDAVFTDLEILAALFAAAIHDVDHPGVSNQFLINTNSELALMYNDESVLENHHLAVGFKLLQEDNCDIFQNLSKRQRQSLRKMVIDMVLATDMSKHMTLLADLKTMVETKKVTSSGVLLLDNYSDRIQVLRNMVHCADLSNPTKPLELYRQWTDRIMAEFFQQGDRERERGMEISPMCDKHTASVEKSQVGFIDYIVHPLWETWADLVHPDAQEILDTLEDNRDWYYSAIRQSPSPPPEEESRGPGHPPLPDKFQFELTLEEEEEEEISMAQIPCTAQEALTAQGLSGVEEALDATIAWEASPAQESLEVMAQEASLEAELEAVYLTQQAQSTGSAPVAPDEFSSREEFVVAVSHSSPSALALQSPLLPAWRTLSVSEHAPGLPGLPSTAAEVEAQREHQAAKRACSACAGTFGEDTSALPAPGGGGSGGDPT
Method: Inhibitory activities of the investigated compounds against various subtypes of human recombinant (hr)PDEs, namely PDE1A, PDE1B, PDE1C, PDE3A, PDE3B, PDE4A, PDE4B, PDE4D, PDE7A, and PDE8A were assessed using a PDE-Glo^TM Assay Kit (Promega, Madison, WI, USA) according to the protocol provided by the manufacturer. Briefly, appropriate amounts of each enzyme (SignalChem, Richmond, B.C., Canada), diluted with PDE-Glo reaction buffer, were distributed on a 384-well plate (Thermo Scientific, Waltham, MA, USA). The investigated compounds were dissolved in DMSO, diluted with the same vehicle, and mixed with the reaction buffer at a v/v ratio of 1:5. Thereafter, 1 µL of these mixtures and 2.5 µL of the cAMP solution as a substrate were added. The final cAMP concentration was 0.05 µM. The samples were incubated for 10 min at 30 °C. Then, 2.5 µL of termination buffer and 2.5 µL of PDE-Glo detection solution were added to each well and incubated for 20 min. Finally, 10 µL of PDE-Glo kinase reagent was added, and luminescence was measured using the POLARstar Omega plate reader (BMG LABTECH, Ortenberg, Germany). Each sample was prepared in quadruplicate. The relative activities (A, %) of all samples were calculated from the following equation: A = [(LUsample − LUblank)/(LUcontrol − LUblank)]·100%; where LUcontrol is the luminescence of a control sample in the absence of a PDE inhibitor, LUsample is a luminescence of an investigated sample in the presence of an inhibitor, and LUblank is a luminescence of a sample in the absence of enzyme (activity = 0). IC50 values were estimated using non-linear regression.

SMILES	number of myofibroblasts (MRC-5 with α-SMA-positive stress fibers); fibroblast to myofibroblast transition [1]	increase in average Ca2+ response area over baseline (MRC-5 cells; 10 µM, acute application)	Ca2+ responses under TRPA1 inhibition by HC-030031 (MRC-5 cells; 145 10 µM in the presence of HC-030031 10 µM)	TGF-β1-induced Smad-2 phosphorylation (immunoblot) [2]	IC50 (PDE4A) [µM]	effect on Ca2+ influx in lung fibroblasts (MRC-5 cells; 10 µM, acute application)
CCCCOc1nc2c(c(=O)n(C)c(=O)n2C)n1CCCC(=O)Nc1cc(C(C)(C)C)ccc1O [Compound 145, 4-(8-butoxy-1,3-dimethyl-2,6-dioxo-1,2,3,6-tetrahydro-7H-purin-7-yl)-N-(5-(tert-butyl)-2-hydroxyphenyl)butanamide]	the most significant decrease	four-fold	failed to induce Ca^2+ responses	reduced	1.59	–
Cn1c(=O)c2c(nc(NCc3ccco3)n2CCCC(=O)NN=Cc2ccc(O)cc2O)n(C)c1=O [Compound 832, N′-(2,4-dihydroxybenzylidene)-4-(8-((furan-2-ylmethyl)amino)-1,3-dimethyl-2,6-dioxo-1,2,3,6-tetrahydro-7H-purin-7-yl)butanehydrazide]	decreased	two-fold	–	no differences	4.75	–
COc1nc2c(c(=O)n(C)c(=O)n2C)n1CC(=O)Nc1ccc(C(C)(C)C)cc1 [Compound 869, N-(4-(tert-butyl)phenyl)-2-(8-methoxy-1,3-dimethyl-2,6-dioxo-1,2,3,6-tetrahydro-7H-purin-7-yl)acetamide]	decreased	–	–	no differences	58.1	inhibited Ca^2+ influx
CC(C)Cn1c(=O)n(C)c(=O)c2[nH]cnc21 [IBMX, 3-isobutyl-1-methyl-3,7-dihydro-1H-purine-2,6-dione, reference compound]	–	–	–	no differences	16.4	–
